Data on 12 compounds can be found in ChEMBL document CHEMBL1201862, “PubChem BioAssay data set” (2004).

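Interpolation was linear, between the two tested concentrations surrounding the appropriate level; five concentrations were tested over 48 hours in 96-well plates. At the GI50, growth is halved.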 Active and inactive are the calls of the source. Rule as the data show it: active = GI50 up to about 1.1 µM and inactive = higher.

What all share (experiment): growth of human tumour cells (NCI), 48 h
The test system of assay [1] is MCF7.
Assay [2] concerns SNB-19.
Assay [3] has as its system NCI-H522.
Assay [4] deals with OVCAR-4.
In assay [5] the test system is MOLT-4.
In assay [6] the test system is HL-60.
The subject of assay [7] is SF-539.
Assay [8] has as its system Malme-3M.
In assay [9] the test system is RXF 393.
The test system of assay [10] is CAKI-1.
Assay [11] deals with NCI-H460.
Assay [12] relates to A498.
In assay [13] the test system is NCI/ADR-RES.
Assay [14] relates to MDA-MB-231.
The test system of assay [15] is MDA-N.
The subject of assay [16] is TK-10.
The test system of assay [17] is T47D.
Assay [18] concerns M14.
For assay [19], the system named is ACHN.
The subject of assay [20] is 786-0.

Consider `O=C1CCCCN1`, for which the GI50 is > 1120 µM (inactive) in assay [1]; > 1120 µM (inactive) in [2]; > 1120 µM (inactive) in assay [3]; > 1120 µM (inactive) in assay [4]; 706 µM (inactive) in [5]; 706 µM (inactive) in assay [6]. Moreover, the GI50 in [7] was > 1120 µM (inactive); in [8] it was > 1120 µM (inactive); in assay [9], 272 µM (inactive); in assay [10], > 1120 µM (inactive); in assay [11] it was > 1120 µM (inactive); in [12] it was > 52 µM (inactive). For the same compound, in [13], the GI50 was 248 µM (inactive).
Consider `O=NN1C(c2ccccc2)CNC(=O)CC1c1ccccc1` (centres undefined), for which the GI50 was 24.9 µM (inactive) in assay [1]; 48.5 µM (inactive) in assay [2]; 20.3 µM (inactive) in [3]; 52.8 µM (inactive) in assay [4]; 52.7 µM (inactive) in assay [5]; 21.9 µM (inactive) in [6]. The GI50 was 35.4 µM (inactive) in assay [7]; 50.9 µM (inactive) in assay [8]; 22.2 µM (inactive) in assay [9]; 59.6 µM (inactive) in assay [10]; 36.2 µM (inactive) in [11]; 35.6 µM (inactive) in assay [12]. In addition, the GI50 in assay [13] is 28.7 µM (inactive).
With `NC12CCC(CC1=O)C2` (centres undefined), the GI50 in [1], in assay [14], in [15], in assay [4], in assay [5] and in assay [6] was > 100 µM (inactive) throughout. The GI50 in [7], in assay [8], in assay [16], in assay [17], in [18] and in assay [19] was > 100 µM (inactive) in each case. For the same compound, in [13], the GI50 is > 100 µM (inactive).
As for `CC(=O)c1cccc(NC(=O)C(=O)C(C(=O)NN)c2ccccc2)c1` (centres undefined), the GI50 in assay [2], in assay [20], in assay [3], in assay [4], in assay [5] and in [7] was > 100 µM (inactive) throughout. Also, the GI50 in assay [8], in assay [9], in assay [16], in [10], in assay [11] and in [18] was > 100 µM (inactive) throughout. Further, the GI50 in assay [12] and in [19] was > 100 µM (inactive) each time.
For the compound `COc1ccc(C[C@H](N)C(=O)N2C[C@H](CO)C[C@H](n3cnc4c(N(C)C)ncnc43)C2)cc1`, the GI50 is > 100 µM (inactive) in assay [2]; > 100 µM (inactive) in assay [3]; > 100 µM (inactive) in assay [4]; > 100 µM (inactive) in [5]; 73.5 µM (inactive) in assay [6]; > 100 µM (inactive) in assay [7]. Besides, the GI50 in assay [8], in [9], in assay [16], in [10], in assay [11] and in assay [18] was > 100 µM (inactive) in each case. Moreover, the GI50 in assay [19] was > 100 µM (inactive).
Take `O=c1cc(-c2nc3ccccc3[nH]2)[nH]c2nc(-c3nc4ccccc4[nH]3)cc(-c3ccc(Cl)cc3)c12`: the GI50 in assay [1] is 12.9 µM (inactive); in assay [14] it was 15.8 µM (inactive); in [2], 46.3 µM (inactive); in assay [15] it was 20.5 µM (inactive); in [3], 6.27 µM (inactive); in [4] it was 26.1 µM (inactive). The GI50 in assay [5] is 19.4 µM (inactive); in assay [6], 24.9 µM (inactive); in [7], 15.9 µM (inactive); in assay [8], 23 µM (inactive); in [9] it was 14.5 µM (inactive); in [16], 19.4 µM (inactive). For the same compound, the GI50 in assay [17] was 14.4 µM (inactive); in assay [10], 21.9 µM (inactive); in assay [11] it was 16.3 µM (inactive); in [18], 23.8 µM (inactive); in [19], 16.6 µM (inactive); in assay [13], 28.4 µM (inactive).
Regarding `COC1C(=[N+]=[N-])C(=O)NC(=O)N1C1OC(COC(c2ccccc2)(c2ccccc2)c2ccccc2)C(O)C1O` (centres undefined), the GI50 was 19.7 µM (inactive) in assay [2]; 16.2 µM (inactive) in assay [3]; 14.2 µM (inactive) in assay [4]; 18.2 µM (inactive) in assay [5]; 23.2 µM (inactive) in assay [6]; 19.9 µM (inactive) in [7]. Moreover, the GI50 in assay [8] is 16.1 µM (inactive); in assay [10], 18.6 µM (inactive); in assay [11], 25.4 µM (inactive); in assay [18], 19 µM (inactive); in assay [12], 20.1 µM (inactive); in assay [19], 18.1 µM (inactive).
For the compound `CCOC(=O)C(C(C)=O)C1CC=CC1` (centres undefined), the GI50 in [2], in assay [20], in [4], in [5], in assay [6] and in assay [8] was > 100 µM (inactive) each time. Moreover, the GI50 in [9], in [16], in [10], in assay [11], in [18] and in [19] was > 100 µM (inactive) each time.
Consider `CCCN(CCC)CCc1ccc(OC2=CCN(C)CC2)cc1`, for which the GI50 in [1] was > 100 µM (inactive); in [14], > 100 µM (inactive); in assay [2] it was > 100 µM (inactive); in assay [20], 39.9 µM (inactive); in [15], 36.6 µM (inactive); in assay [3], 21.1 µM (inactive). In addition, the GI50 in assay [4] is > 100 µM (inactive); in assay [5] it was 43.3 µM (inactive); in assay [6], 35.8 µM (inactive); in assay [8], 13.8 µM (inactive); in [9], > 100 µM (inactive); in [16], 87.3 µM (inactive). For the same compound, the GI50 in [17] is > 100 µM (inactive); in assay [10], > 100 µM (inactive); in [18], 15.7 µM (inactive); in [19], 95.5 µM (inactive); in assay [13], > 100 µM (inactive).
`O=C1Cc2c(-c3ccccc3)cc(-c3ccccc3)nc2-c2ccccc2N1`: the GI50 in assay [14] is 3.48 µM (inactive); in assay [2], 2.78 µM (inactive); in assay [15] it was > 10 µM (inactive); in assay [3], 7.18 µM (inactive); in assay [6] it was 75.9 µM (inactive); in assay [7], 11 µM (inactive). Also, the GI50 is 9.79 µM (inactive) in assay [8]; 4.61 µM (inactive) in [9]; 10.9 µM (inactive) in [17]; 3.64 µM (inactive) in assay [10]; 4.01 µM (inactive) in [11]; 3.44 µM (inactive) in assay [18]. Besides, the GI50 in [12] is 20 µM (inactive); in [13] it was 3.61 µM (inactive).
For the compound `O=c1c(C(c2ccccn2)c2c(O)oc3cc(O)ccc3c2=O)c(O)oc2cc(O)ccc12`, the GI50 in [1], in [14], in [2], in [20], in [15] and in assay [3] was > 100 µM (inactive) throughout. Further, the GI50 in assay [5], in assay [7], in assay [9], in assay [16], in assay [17] and in assay [10] was > 100 µM (inactive) in each case. In addition, the GI50 in assay [11], in assay [18], in assay [12], in [19] and in assay [13] was > 100 µM (inactive) each time.
Consider `CC(=O)O[C@H]1CC[C@]2(C=O)[C@H]3CC[C@]4(C)[C@@H](C5=CC(=O)OC5)CC[C@]4(O)[C@@H]3CC[C@]2(O)C1` [STROPHANTHIDIN ACETATE], for which the GI50 in assay [14] is 0.769 µM (active); in assay [2], 0.608 µM (active); in [20], 0.212 µM (active); in [15] it was 0.282 µM (active); in assay [3] it was 0.0336 µM (active); in [4], 0.0998 µM (active). For the same compound, the GI50 in assay [5] was 0.0262 µM (active); in assay [6], 0.344 µM (active); in assay [7], 0.13 µM (active); in [8], 0.231 µM (active); in assay [16] it was 0.211 µM (active); in assay [17] it was 0.407 µM (active). For the same compound, the GI50 in [10] is 0.0536 µM (active); in assay [11] it was 0.0578 µM (active); in assay [18] it was 0.416 µM (active); in assay [12], 0.264 µM (active); in [19], 0.047 µM (active); in assay [13] it was 0.197 µM (active).
